Data published in patent US20260356957A1, “METHODS FOR TREATMENT OF NON-SMALL CELL LUNG CANCER (NSCLC)” (Janssen Biotech, Inc., priority 2023, published 2026).
Several values for one entry are separate records, joined by “and”; a condition that tells them apart may be missing. Equal values may be shown once.

Tests used:
Type in all cases: in vivo, human
[1] = system: EGFR-mutated locally advanced or metastatic NSCLC; experiment: MARIPOSA Phase 3, time to symptomatic progression (TTSP)
[2] = system: EGFR-mutant (Ex19del/L858R) advanced NSCLC; experiment: MARIPOSA Phase 3, PFS in high-risk subgroups
Description: Key Eligibility Criteria: locally advanced or metastatic NSCLC, treatment-naïve for advanced disease, documented EGFR Ex19del or L858R, and ECOG PS 0 or 1. […] High-risk subgroups analyzed: liver metastases, brain metastases, TP53 co-mutation, detectable EGFRm ctDNAd at baseline, and without EGFRm ctDNAd clearance at C3D1 (Week 9) (FIG. 16). Detection of ctDNA and co-mutations were analyzed by next-generation sequencing (NGS) of blood at baseline. Detection and clearance of Ex19del and L858R ctDNA in blood were analyzed with ddPCR at baseline and C3D1.

[3] = system: EGFR-mutated locally advanced or metastatic NSCLC; experiment: MARIPOSA Phase 3, progression-free survival by BICR; conditions: for Median progression-free survival (95% CI): median follow-up 22.0 months
Text: The primary endpoint of the study is PFS (using RECIST v1.1 guidelines) as assessed by blinded independent central review (BICR).

[4] = system: EGFR-mutated locally advanced or metastatic NSCLC; experiment: MARIPOSA Phase 3, duration of response by BICR
Ex19del and L858R ctDNA = experiment: MARIPOSA Phase 3, EGFRm ctDNA in blood by ddPCR; conditions: patients with matched samples
Description: Detection of circulating tumor (ctDNA) and co-mutations were analyzed by next-generation sequencing (NGS) of blood at baseline.
Detectable EGFRm ctDNA at Baseline and On Treatment: Detection and clearance of Ex19del and L858R ctDNA in the blood were analyzed by ddPCR (Ex19del or L858R by Biodesix ddPCR).

[5] = system: EGFR-mutated locally advanced or metastatic NSCLC; experiment: MARIPOSA Phase 3, objective response by BICR (RECIST v1.1)

## C=CC(=O)Nc1cc(Nc2nccc(-c3cn(C)c4ccccc34)n2)c(OC)cc1N(C)CCN(C)C [Osimertinib]
[1]; Full Analysis Set
  Censored (TTSP): 202 (61.1%) (%)
  Death without Symptomatic PD: 49 (11.4%) (%)
  Event (TTSP): 167 (38.9%) (%)
  Symptomatic PD: 118 (27.5%) (%)
  TTSP 6-month event-free rate (95% CI): 0.90 (0.87, 0.93)
  TTSP 12-month event-free rate (95% CI): 0.79 (0.74, 0.82)
  TTSP 18-month event-free rate (95% CI): 0.67 (0.63, 0.72)
  TTSP 24-month event-free rate (95% CI): 0.59 (0.53, 0.64)
  TTSP 30-month event-free rate (95% CI): 0.49 (0.40, 0.58)
[1]; NE = not estimable
  TTSP Median (95% CI): 29.31 (29.31, NE) months
  TTSP time to event, 75th percentile (95% CI): NE (NE, NE)
[2]; detectable baseline ctDNA, Biodesix ddPCR
  Median PFS: 14.8 months
[2]; wild-type TP53 at baseline
  Median PFS: 19.9 months
[2]; with TP53 co-mutations at baseline
  Median PFS: 12.9 months
[2]; with brain metastases at baseline
  Median PFS: 13.0 months
[2]; with cleared ctDNA at C3D1, Biodesix ddPCR
  Median PFS: 16.5 months
[2]; with liver metastases at baseline
  Median PFS: 11.0 months
[2]; without brain metastases at baseline
  Median PFS: 19.9 months
[2]; without cleared ctDNA at C3D1, Biodesix ddPCR
  Median PFS: 9.1 months
[2]; without detectable baseline ctDNA, Biodesix ddPCR
  Median PFS: 21.9 months
[2]; without liver metastases at baseline
  Median PFS: 18.3 months
[3]
  PFS 6-month event-free rate (95% CI): 0.85 (0.83, 0.88)
  PFS 18-month event-free rate (95% CI): 0.48 (0.43, 0.53)
  PFS 24-month event-free rate (95% CI): 0.34 (0.26, 0.39)
  PFS 30-month event-free rate (95% CI): 0.30 (0.24, 0.36)
  Median progression-free survival (95% CI): 16.59 (14.78, 18.46) months
[3]; Full Analysis Set
  Censored (PFS): 177 (41.3%) (%)
  Event (PFS): 252 (58.7%) (%)
  PFS time to event, 25th percentile (95% CI): 9.23 (7.49, 10.94) months
  PFS time to event, 75th percentile (95% CI): NE (27.50, NE)
[3]; efficacy population
  Progression-free survival, Patients (95% CI) at 12 months: 65 (60-69) %
  Progression-free survival, Patients (95% CI) at 18 months: 48 (43-53) %
  Progression-free survival, Patients (95% CI) at 24 months: 34 (28-39) %
[3]; listed as osimertinib
  Median progression-free survival (95% CI): 16.6 months and 16.59 months
[4]
  Response duration, Median (95% CI) among all responders: 14.9 (12.9-17.5) mo
  Response duration, Median (95% CI) among confirmed responders: 16.8 (14.8-18.5) mo
[4]; confirmed responders
  Censored (DOR): 151 (48.1%) (%)
  DOR time to event, 25th percentile (95% CI): 9.26 (9.13, 10.25) months
  Duration of response >=6 months: 267 (65.0%) (%)
  Duration of response >=12 months: 181 (57.6%) (%)
  Duration of response >=18 months: 86 (27.4%) (%)
  Duration of response >=24 months: 21 (6.7%) (%)
  Event (DOR): 163 (51.9%) (%)
  Median duration of response (95% CI): 16.76 (14.75, 18.53) months
[4]; confirmed responders, NE = not estimable
  DOR time to event, 75th percentile (95% CI): NE (NE, NE)
[4]; confirmed responders, listed as osimertinib
  Median duration of response (95% CI): 16.8 months
[4]; number of patients, measurable disease at baseline
  Confirmed Responders (Confirmed CR + Confirmed PR): 314
Ex19del and L858R ctDNA
  Detectable EGFRm ctDNA at C3D1 (Week 9): 15%
[5]
  Best overall response: Not evaluable: 11 (3) no. (%)
  Best overall response: Progressive disease: 11 (3) no. (%)
  Best overall response: Stable disease: 42 (10) no. (%)
[5]; all responders
  Best overall response: Complete response: 15 (4) no. (%)
  Best overall response: Partial response: 335 (81) no. (%)
[5]; best overall response
  Complete Response (CR): 15 (3.0%) (%)
  Not Evaluable (NE): 11 (2.7%) (%)
  Partial Response (PR): 335 (80.9%) (%)
  Progressive Disease (PD): 11 (2.7%) (%)
[5]; measurable disease at baseline
  Objective response rate, Patients (95% CI), all responders: 85 (81-88) %
  Objective response, Patients (95% CI) including only confirmed responders: 76 (71-80) %
[5]; measurable disease at baseline, RECIST v1.1
  Objective response rate (CR + PR): 350 (84.5%) (%)
[5]; measurable disease at baseline, listed as osimertinib
  Objective response rate, Patients (95% CI), all responders: 85%
